In patent US5219741A, “Method of making L-proline using an N-acyl-L-protine acylase” (priority 1990, dated 1993):
“Also recorded” adds a separate entry of the source.

Tested on: N-acyl-L-proline acylase
Test: not given
Format: biochemical, Comamonas testosteroni DSM 5416
Settings: chemical agent 1 mM; 10 min pre-incubation at 30° C.; no agent = 100
Procedure: (§1) The enzymatic reaction was interrupted by pipetting 50 μl of the enzyme sample into 1.25 ml 100% acetic acid. Subsequently, 0.45 ml 0.1M tris-HCl buffer pH 7.0 and 1.25 ml ninhydrin reagent (3 g ninhydrin dissolved by heating in a mixture of 60 ml 100% acetic acid and 40 ml 6M phosphoric acid) were added. The ninhydrin reagent was freshly prepared daily. The test tubes were loosely closed with screw-on caps, incubated 30 minutes at 100° C. and subsequently cooled down in an ice bath.
(§2) The L-proline, liberated by the enzymatic hydrolysis, forms a red dye with ninhydrin at 100° C. The absorption of the red dye was measured in a spectrophotometer at 480 nm relative to a control batch without crude extract (=substrate blank). The concentration of the L-proline produced was determined using a straight calibration line with L-proline in a range of 5 to 100 nmoles per 50 μl specimen. The enzyme activity was indicated in international units; thus, one unit (U) corresponded to an amount of 1 μmole L-proline produced per minute.
The influence of various chemical agents as well as metal cations and anions on the reaction speed of the hydrolytic splitting of N-acetyl-L-proline was determined at 30° C. in a reaction batch with the following composition: […]
The enzyme was pre-incubated for 10 minutes at 30° C. with the compound before the addition of substrate to start the reaction.
The enzyme was pre-incubated for 10 minutes at 30° C. with the agent before the substrate was added to start the reaction.
The enzyme was pre-incubated 10 minutes at 30° C. with the agent before the substrate was added to start the reaction. The concentration of the anions was 10 mM in each instance.

Row | Structure (SMILES) | Activity (%)
1 | c1cnc2c(c1)ccc1cccnc12 [1,10 phenanthroline, 1,10-phenanthroline] | 27

Same assay, conditions: chemical agent 10 mM; 10 min pre-incubation at 30° C.; no agent = 100

Row | Structure (SMILES) | Activity (%)
2 | c1cnc2c(c1)ccc1cccnc12 [1,10 phenanthroline, 1,10-phenanthroline] | 1

Same assay, conditions: metal cation salt 1 mM; native enzyme; no agent = 100

Row | Structure (SMILES) | Activity (%)
3 | [Ba+2].[Cl-].[Cl-] [BaCl2] | 100
4 | [Ca+2].[Cl-].[Cl-] [CaCl2] | 100
5 | [Cl][Cd][Cl] [CdCl2] | 89
6 | [Cl-].[Cl-].[Co+2] [CoCl2] | 103

Same assay, conditions: metal cation salt 10 mM; native enzyme; no agent = 100

Row | Structure (SMILES) | Activity (%)
7 | [Ba+2].[Cl-].[Cl-] [BaCl2] | 99
8 | [Ca+2].[Cl-].[Cl-] [CaCl2] | 91
9 | [Cl][Cd][Cl] [CdCl2] | 65
10 | [Cl-].[Cl-].[Co+2] [CoCl2] | 92

Same assay, conditions: native enzyme

Row | Structure (SMILES) | Influence on the acylase activity (in words)
11 | c1cnc2c(c1)ccc1cccnc12 [1,10 phenanthroline, 1,10-phenanthroline] | inhibiting action; also recorded: significantly inhibit
12 | [Cl][Cd][Cl] [CdCl2] | inhibiting action

Tested on: 1,10-phenanthroline-inactivated acylase (apoenzyme)
Test: Influence of cations on the 1,10-phenanthroline-inactivated acylase
Format: biochemical, Comamonas testosteroni DSM 5416
Settings: 1,10-phenanthroline-inactivated acylase
Procedure: FPLC/Mono Q purified enzyme was incubated for 24 hours at 4° C. in the presence of 1 mM 1,10-phenanthroline. Subsequently, enzyme and the chelating agent 1,10-phenanthroline were separated by gel filtration via Sephadex G-25M (PD-10, firm Pharmacia/LKB, Uppsala, Sweden). The enzyme-containing fractions were combined and the activity determined without and in the presence of various cations (1 mM).

Row | Structure (SMILES) | Influence on the apoenzyme (in words)
13 | [Cl-].[Cl-].[Co+2] [CoCl2] | activating action

Same assay, conditions: enzyme incubated 24 hours at 4° C. with 1 mM 1,10-phenanthroline, before gel filtration; native enzyme = 100

Row | Structure (SMILES) | Activity (%)
14 | c1cnc2c(c1)ccc1cccnc12 [1,10 phenanthroline, 1,10-phenanthroline] | 2

Same assay, conditions: inactivated enzyme after gel filtration + cation 1 mM; native enzyme = 100, no agent = 21

Row | Structure (SMILES) | Activity (%)
15 | [Ba+2].[Cl-].[Cl-] [BaCl2] | 18
16 | [Ca+2].[Cl-].[Cl-] [CaCl2] | 17
17 | [Cl][Cd][Cl] [CdCl2] | 20
18 | [Cl-].[Cl-].[Co+2] [CoCl2] | 80

Tested on: N-acyl-L-proline acylase
Test: Substrate specificity: hydrolysis of N-acyl amino acids and proline derivatives
Format: biochemical, Comamonas testosteroni DSM 5416
Settings: not given
Procedure: The activity of acylase was determined with various N-acetyl-L-amino acids and N-chloroacetyl-L-amino acids in a reaction batch with the following composition:
The reaction temperature was 30° C. and the incubation time 15 minutes to 24 hours. 0.2 ml samples of the reaction batch in each instance were mixed at different times with 0.2 ml 10% (w/v) trichloroacetic acid and the denatured protein centrifuged off for 10 minutes at 11,000 rpms in a table centrifuge. The supernatant was diluted with a 0.1M Na citrate buffer pH 2.2 with 25% (v/v) 2.2-thiodiethanol and 0.1% (v/v) phenol 1:5 and 1:50 respectively. The amino acids released were quantitatively detected by an amino-acid analyzer LC 5001 of the firm Biotronic, Maintal, Federal Republic of Germany. In Table 16, the substrates marked with * and the corresponding products were quantified by means of HPLC.
The activity of the acylase was determined with various proline derivatives as under a).

Row | Structure (SMILES) | Hydrolysis by the acylase (in words)
19 | CC(=O)N[C@@H](C)C(=O)O [N-acetyl-L-alanine] | hydrolyzes; also recorded: reacted at a distinctly lower speed
20 | CSCC[C@H](NC(=O)CCl)C(=O)O [N-chloroacetyl-L-methionine] | hydrolyzes; also recorded: reacted at a distinctly lower speed
21 | CC(C)[C@H](NC(=O)CCl)C(=O)O [N-chloroacetyl-L-valine] | hydrolyzes; also recorded: reacted at a distinctly lower speed

Same assay, conditions: 20 mM substrate 1.0 ml in 2.0 ml batch, 30° C., pH 7.0; N-acetyl-L-proline = 100%; amino-acid analyzer

Row | Structure (SMILES) | Rel. activity (%)
22 | CC(C)C[C@H](NC(=O)CCl)C(=O)O [ClAc--L--Leu] | 1.9
23 | O=C(CCl)N[C@@H](Cc1ccccc1)C(=O)O [ClAc--L--Phe] | 1.0
24 | O=C(CCl)N[C@@H](Cc1ccc(O)cc1)C(=O)O [ClAc--L--Tyr] | 1.0
25 | CC(=O)N[C@@H](C)C(=O)O [N-acetyl-L-alanine] | 9.3
26 | CSCC[C@H](NC(=O)CCl)C(=O)O [N-chloroacetyl-L-methionine] | 17.1
27 | CC(C)[C@H](NC(=O)CCl)C(=O)O [N-chloroacetyl-L-valine] | 14.1

Tested on: Comamonas testosteroni DSM 5416
Test: Growth of the strain in culture medium (OD600)
Format: cell-based
Settings: (NH4)2 SO4 1 g/l in culture medium; 23 hours
Procedure: Strains which appeared uniform according to the colony morphology and the microscopic image were then cultivated in 100 ml liquid medium (500 ml Erlenmeyer flask with top and 4 lateral baffles) at 30° C. on a rotary agitator machine at 200 rpms. The culture medium had the following composition: […]
(§3) The carbon source of the culture medium with a concentration of 4 g/l was varied and the influence on growth and acylase formation determined.
(§4) The concentration of N-acetyl-L-proline was varied in a range of 1 g/l-5 g/l in steps of 1 g/l in the culture medium as described in Example 1.
(§5) The concentration of (NH4)2 SO4 was varied in a range of 1 g/l-5 g/l in steps of 1 g/l in the culture medium as described in Example 1.
(§6) The concentration of yeast extract was varied in a range of 1 g/l-5 g/l in steps of 1 g/l in the culture medium as described in Example 1.
(§7) The N-acetyl-L-proline concentration was reduced to 0.2 to 1.0 g/l in the culture medium as described in Example 1 and 4 g/l Na acetate were additionally added.
(§8) The method described above under f) was followed. However, the inductor, N-acetyl-L-proline, was not added to the nutrient medium until the late exponential growth phase after an incubation time of 12 hours.
(§9) The method described above under f) was followed. In addition to N-acetyl-L-proline, various N-acetyl- and N-chloroacetyl amino acids were added to the nutrient medium in a concentration of 1 g/l.

Row | Structure (SMILES) | Growth (OD600)
28 | N.N.O=S(=O)(O)O [(NH4)2 SO4] | 5.24

Same assay, conditions: (NH4)2 SO4 2 g/l in culture medium; 23 hours

Row | Structure (SMILES) | Growth (OD600)
29 | N.N.O=S(=O)(O)O [(NH4)2 SO4] | 5.67

Same assay, conditions: (NH4)2 SO4 3 g/l in culture medium; 23 hours

Row | Structure (SMILES) | Growth (OD600)
30 | N.N.O=S(=O)(O)O [(NH4)2 SO4] | 5.47

Same assay, conditions: (NH4)2 SO4 4 g/l in culture medium; 23 hours

Row | Structure (SMILES) | Growth (OD600)
31 | N.N.O=S(=O)(O)O [(NH4)2 SO4] | 5.44

Same assay, conditions: (NH4)2 SO4 5 g/l in culture medium; 23 hours

Row | Structure (SMILES) | Growth (OD600)
32 | N.N.O=S(=O)(O)O [(NH4)2 SO4] | 5.47

Same assay, conditions: carbon source 4 g/l in culture medium

Row | Structure (SMILES) | Growth (OD600)
33 | CC(=O)O [Acetate] | 2.3
34 | CCCC(=O)O [Butyrate] | 1.8
35 | OCC(O)CO [Glycerol] | 1.1
36 | N[C@@H](CC(=O)O)C(=O)O [L-aspartate] | 2.0
37 | CC(C)C[C@H](N)C(=O)O [L-leucine] | 2.6

Same assay, conditions: inductor 1 g/l + 4 g/l Na acetate; 24 hours

Row | Structure (SMILES) | Growth (OD600)
38 | CC(C)C[C@H](NC(=O)CCl)C(=O)O [ClAc--L--Leu] | 2.65
39 | O=C(CCl)N[C@@H](Cc1ccccc1)C(=O)O [ClAc--L--Phe] | 2.89
40 | O=C(CCl)N[C@@H](Cc1ccc(O)cc1)C(=O)O [ClAc--L--Tyr] | 2.76
41 | CC(=O)N[C@@H](C)C(=O)O [N-acetyl-L-alanine] | 2.28
42 | CSCC[C@H](NC(=O)CCl)C(=O)O [N-chloroacetyl-L-methionine] | 2.19
43 | CC(C)[C@H](NC(=O)CCl)C(=O)O [N-chloroacetyl-L-valine] | 2.50

Tested on: N-acyl-L-proline acylase formation in Comamonas testosteroni DSM 5416
Test: Acylase formation: specific activity of N-acyl-L-proline acylase in crude extract
Format: cell-based
Settings: not given
Procedure: After 24 to 48 hours, the cell-containing nutrient medium was centrifuged (15 min., 4,500 g in a cooling centrifuge), the cells were washed twice with 0.9% (w/v) NaCl solution and resuspended in 10 ml 0.1M tris-HCl buffer, pH 7.0.
The microorganisms of this suspension were macerated by ultrasound treatment (Sonifier-Cell Disrupter B-30 of the firm Branson Sonic Power Co., Danbury, Conn., USA) (2 minutes pulsating, corresponding to 1 minute of pure ultrasonic radiation. The cell fragments and non-macerated cells were centrifuged in a cooled centrifuge 30 minutes at 40,000 g and 5° C. The clear supernatant (=crude extract) was used in an enzyme test.
The reaction was started by adding crude extract and the reaction batches customarily incubated for 10 minutes at 30° C. The incubation time and the amount of crude extract were selected so that the linearity range of the enzymatic reaction and of the subsequent proline detection were not exceeded.
as §1, §2
The protein determination was carried out with a protein-determination kit of the firm Pierce Chemical Co., Rockford, Ill., USA, according to Bradford, Anal. Biochem. 72, pp. 248-254 (1976).
as §3, §4, §5, §6, §7, §8, §9

Row | Structure (SMILES) | Optimum concentration in the culture medium for acylase formation [g/L] | Acylase formation / induction (in words)
44 | N.N.O=S(=O)(O)O [(NH4)2 SO4] | 2 | 
45 | CC(=O)O [Acetate] |  | not repressed

Same assay, conditions: (NH4)2 SO4 1 g/l in culture medium; 23 hours

Row | Structure (SMILES) | Spec. activity (U/mg)
46 | N.N.O=S(=O)(O)O [(NH4)2 SO4] | 1.71

Same assay, conditions: (NH4)2 SO4 2 g/l in culture medium; 23 hours

Row | Structure (SMILES) | Spec. activity (U/mg)
47 | N.N.O=S(=O)(O)O [(NH4)2 SO4] | 1.91

Same assay, conditions: (NH4)2 SO4 3 g/l in culture medium; 23 hours

Row | Structure (SMILES) | Spec. activity (U/mg)
48 | N.N.O=S(=O)(O)O [(NH4)2 SO4] | 1.53

Same assay, conditions: (NH4)2 SO4 4 g/l in culture medium; 23 hours

Row | Structure (SMILES) | Spec. activity (U/mg)
49 | N.N.O=S(=O)(O)O [(NH4)2 SO4] | 1.59

Same assay, conditions: (NH4)2 SO4 5 g/l in culture medium; 23 hours

Row | Structure (SMILES) | Spec. activity (U/mg)
50 | N.N.O=S(=O)(O)O [(NH4)2 SO4] | 1.32

Same assay, conditions: carbon source 4 g/l in culture medium

Row | Structure (SMILES) | Spec. activity (U/mg)
51 | CC(=O)O [Acetate] | < 0.01
52 | CCCC(=O)O [Butyrate] | < 0.01
53 | OCC(O)CO [Glycerol] | < 0.01
54 | N[C@@H](CC(=O)O)C(=O)O [L-aspartate] | < 0.01
55 | CC(C)C[C@H](N)C(=O)O [L-leucine] | < 0.01

Same assay, conditions: inductor 1 g/l + 4 g/l Na acetate; 24 hours

Row | Structure (SMILES) | Spec. activity (U/mg)
56 | CC(C)C[C@H](NC(=O)CCl)C(=O)O [ClAc--L--Leu] | < 0.01
57 | O=C(CCl)N[C@@H](Cc1ccccc1)C(=O)O [ClAc--L--Phe] | < 0.01
58 | O=C(CCl)N[C@@H](Cc1ccc(O)cc1)C(=O)O [ClAc--L--Tyr] | < 0.01
59 | CC(=O)N[C@@H](C)C(=O)O [N-acetyl-L-alanine] | < 0.01
60 | CSCC[C@H](NC(=O)CCl)C(=O)O [N-chloroacetyl-L-methionine] | < 0.01
61 | CC(C)[C@H](NC(=O)CCl)C(=O)O [N-chloroacetyl-L-valine] | < 0.01
